In US8859580B2 (Boehringer Ingelheim International GmbH, priority 2007, dated 2014):

Molecular target: T1, 11β-HSD1 (Homo sapiens, UniProt P28845)
T1 construct: detecting cortisol generated from cortisterone by human liver microsomes; from tissue; host or cells: human liver microsomes
Assay: In vitro inhibition of 11β-HSD1, HTRF detection of cortisol generated from cortisone by human liver microsomes
Assay type: biochemical
Details: 11β-HSD IC50 (nM), 1 hour at 37° C., pH 6.0, NADPH 200 μM, cortisone 80 nM, inhibition relative to carbenoxolone signal
Outline: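 Cortisol formed from cortisone by human liver microsomes quantified by competitive HTRF immunoassay (XL665-cortisol, Eu-cryptate anti-cortisol antibody), 2 h detection, Em665/Em615 ratio converted via cortisol calibration curve. Percent inhibition relative to carbenoxolone signal; IC50 from curves.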

T1 sequence (P28845 whole entry): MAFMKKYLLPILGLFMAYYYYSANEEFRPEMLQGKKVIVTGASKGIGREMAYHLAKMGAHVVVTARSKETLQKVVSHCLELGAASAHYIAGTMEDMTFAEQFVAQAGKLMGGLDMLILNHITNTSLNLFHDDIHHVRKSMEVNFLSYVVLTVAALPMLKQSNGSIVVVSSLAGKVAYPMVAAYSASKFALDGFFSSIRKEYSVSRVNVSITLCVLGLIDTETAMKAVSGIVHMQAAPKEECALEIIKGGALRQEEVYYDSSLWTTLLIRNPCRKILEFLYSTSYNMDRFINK

Row | Compound | IC50 [nM]
1 | CC1(C)[C@H]2Cc3c(C#N)cccc3[C@]1(C)CCN2C(=O)c1ccc2nc[nH]c2c1 [Example 93, (2R,6S)-3-(3H-Benzoimidazole-5-carbonyl)-6,11,11-trimethyl-1,2,3,4,5,6-hexahydro-2,6-methano-benzo[d]azocine-10-carbonitrile] | 2060
2 | O=C(c1ccc2nc[nH]c2c1)N1CCC2(c3ccccc3)CC1Cc1ccccc12 (stereo not drawn) [Example 148, (3H-Benzoimidazol-5-yl)-(6-phenyl-1,2,5,6-tetrahydro-4H-2,6-methano-benzo[d]azocin-3-yl)-methanone] | 556
3 | COc1ccc2c(c1)[C@]1(C)CCN(C(=O)c3cccnc3)[C@H](C2)[C@@H]1C [Example 107, [(2R,6R,11R)-8-Methoxy-6,11-dimethyl-1,2,5,6-tetrahydro-4H-2,6-methano-benzo[d]azocin-3-yl]-pyridin-3-yl-methanone] | 2550
4 | CC1(C)[C@H]2Cc3c(O)cccc3[C@]1(C)CCN2C(=O)c1ccccc1Cl [Example 2, (2-Chloro-phenyl)-[(2R,6S)-10-hydroxy-6,11,11-trimethyl-1,2,5,6-tetrahydro-4H-2,6-methano-benzo[d]azocin-3-yl]-methanone] | 741
5 | Cc1cnc(-c2nc3cc4c(cc3[nH]2)[C@]2(C)CCN(C(=O)c3ccc5nc[nH]c5c3)[C@H](C4)C2(C)C)cn1 [Example 277, (3H-Benzoimidazol-5-yl)-[(6R,10S)-5,6,7,8,9,10-hexahydro-10,12,12-trimethyl-2-(5-methyl-pyrazin-2-yl)-6,10-methano-imidazo[5,4-i][3]benzazocin-7-yl]-methanone] | 34
6 | CC12CCN(C(=O)c3ccc4ncsc4c3)C(Cc3ccccc31)C2 (stereo not drawn) [Example 174, Benzothiazol-6-yl-(6-methyl-1,2,5,6-tetrahydro-4H-2,6-methano-benzo[d]azocin-3-yl)-methanone] | 406
7 | C[C@@H]1[C@H]2Cc3ccc(O)cc3[C@]1(C)CCN2C(=O)c1ccc2nc[nH]c2c1 [Example 52, (3H-Benzoimidazol-5-yl)-[(2R,6R,11S)-8-hydroxy-6,11-dimethyl-1,2,5,6-tetrahydro-4H-2,6-methano-benzo[d]azocin-3-yl]-methanone] | 101
8 | CC1(C)[C@H]2Cc3ccccc3[C@]1(C)CCN2C(=O)c1ccc2c(c1)CC(=O)N2 [Example 298, 5-[(2R,6S)-6,11,11-Trimethyl-1,2,5,6-tetrahydro-4H-2,6-methano-benzo[d]azocine-3-carbonyl]-1,3-dihydro indol-2-one] | 99
9 | CC1(C)[C@H]2Cc3ccccc3[C@]1(C)CCN2C(=O)c1ccc(N)cc1 [Example 286, (4-Amino-phenyl)-[(2R,6S)-6,11,11-trimethyl-1,2,5,6-tetrahydro-4H-2,6-methano-benzo[d]azocin-3-yl]-methanone] | 47
10 | CC1(C)[C@H]2Cc3ccccc3[C@]1(C)CCN2C(=O)c1cc(Cl)c(O)c(Cl)c1 [Example 320, (3,5-Dichloro-4-hydroxy-phenyl)-[(2R,6S)-6,11,11-trimethyl-1,2,5,6-tetrahydro-4H-2,6-methano-benzo[d]azocin-3-yl]-methanone] | 165
11 | CC1(C)[C@H]2Cc3ccc(O)cc3[C@]1(C)CCN2C(=O)c1ccc2nc[nH]c2c1 [Example 80, (3H-Benzoimidazol-5-yl)-[(2R,6S)-8-hydroxy-6,11,11-trimethyl-1,2,5,6-tetrahydro-4H-2,6-methano-benzo[d]azocin-3-yl]-methanone] | 40
12 | CN(C)S(=O)(=O)c1ccc2c(c1)[C@]1(C)CCN(C(=O)c3ccc4nc[nH]c4c3)[C@H](C2)C1(C)C [Example 201, (2R,6S)-3-(3H-Benzoimidazole-5-carbonyl)-6,11,11-trimethyl-1,2,3,4,5,6-hexahydro-2,6-methano-benzo[d]azocine-8-sulfonic acid dimethylamide] | 53
13 | CCOC(=O)c1ccc2c(c1)[C@]1(C)CCN(C(=O)c3ccc4nc[nH]c4c3)[C@H](C2)[C@H]1C [Example 91, (2R,6R,11S)-3-(3H-Benzoimidazole-5-carbonyl)-6,11-dimethyl-1,2,3,4,5,6-hexahydro-2,6-methano-benzo[d]azocine-8-carboxylic acid ethyl ester] | 711
14 | Cc1cnc(-c2nc3cc4c(cc3o2)C[C@H]2N(C(=O)c3ccc5nc[nH]c5c3)CC[C@]4(C)C2(C)C)cn1 [Example 313, (3H-Benzoimidazol-5-yl)-[(6R,10S)-5,6,7,8,9,10-hexahydro-10,12,12-trimethyl-2-(5-methyl-pyrazin-2-yl)-6,10-methano-oxazolo[4,5-i][3]benzazocin-7-yl]-methanone] | 61
15 | CC1(C)[C@H]2Cc3ccccc3[C@]1(C)CCN2C(=O)c1c[nH]c2ccccc12 [Example 259, (1H-Indol-3-yl)-[(2R,6S)-6,11,11-trimethyl-1,2,5,6-tetrahydro-4H-2,6-methano-benzo[d]azocin-3-yl]-methanone] | 115
16 | COc1cc2c(cc1O)C1(C)CCN(C(=O)c3ccc4nc[nH]c4c3)C(C2)C1(C)C (stereo not drawn) [Example 73, (3H-Benzoimidazol-5-yl)-(8-hydroxy-9-methoxy-6,11,11-trimethyl-1,2,5,6-tetrahydro-4H-2,6-methano-benzo[d]azocin-3-yl)-methanone] | 88
17 | CC[C@@H]1[C@H]2Cc3ccc(O)cc3[C@]1(CC)CCN2C(=O)c1ccc2nc[nH]c2c1 (racemic) [Example 85, (3H-Benzoimidazol-5-yl)-(6,11-diethyl-8-hydroxy-1,2,5,6-tetrahydro-4H-2,6-methano-benzo[d]azocin-3-yl)-methanone] | 89
18 | CC1(C)[C@H]2Cc3c(O)cccc3[C@]1(C)CCN2C(=O)c1ccncc1Cl [Example 144, (3-Chloro-pyridin-4-yl)-[(2R,6S)-10-hydroxy-6,11,11-trimethyl-1,2,5,6-tetrahydro-4H-2,6-methano-benzo[d]azocin-3-yl]-methanone] | 2560
19 | CC1(C)[C@H]2Cc3c(O)cccc3[C@]1(C)CCN2C(=O)c1ccc(N2CCOCC2)cc1 [Example 25, [(2R,6S)-10-Hydroxy-6,11,11-trimethyl-1,2,5,6-tetrahydro-4H-2,6-methano-benzo[d]azocin-3-yl]-(4-morpholin-4-yl-phenyl)-methanone] | 686
20 | C[C@@H]1[C@H]2Cc3ccc(-c4nnco4)cc3[C@]1(C)CCN2C(=O)c1ccc2nc[nH]c2c1 [Example 334, (3H-Benzoimidazol-5-yl)-[(2R,6R,11S)-6,11 dimethyl-8-[1,3,4]oxadiazol-2-yl-1,2,5,6-tetrahydro-4H-2,6-methano-benzo[d]azocin 3-yl]-methanone] | 104
21 | COc1cc2c(cc1OC)C1(C)CCN(C(=O)c3ccc4nc[nH]c4c3)C(C2)C1(C)C (stereo not drawn) [Example 72, (3H-Benzoimidazol-5-yl)-(8,9-dimethoxy-6,11,11-trimethyl-1,2,5,6-tetrahydro-4H-2,6-methano-benzo[d]azocin-3-yl)-methanone] | 148
22 | CC1(C)[C@H]2Cc3c(O)cccc3[C@]1(C)CCN2C(=O)c1ccc2scnc2c1 [Example 45, Benzothiazol-5-yl-[(2R,6S)-10-hydroxy-6,11,11-trimethyl-1,2,5,6-tetrahydro-4H-2,6-methano-benzo[d]azocin-3-yl]-methanone] | 384
23 | CC1C2Cc3ccc(O)cc3C1(C)CCN2C(=O)c1ccccc1 (stereo not drawn) [Example 105, (8-Hydroxy-6,11-dimethyl-1,2,5,6-tetrahydro-4H-2,6-methano-benzo[d]azocin-3-yl)-phenyl-methanone] | 1330
24 | COc1cccc2c1C[C@H]1N(C(=O)c3ccoc3C)CC[C@]2(C)C1(C)C [Example 104, [(2R,6S)-10-Methoxy-6,11,11-trimethyl-l,2,5,6-tetrahydro-4H-2,6-methano-benzo[d]azocin-3-yl]-(2-methyl-furan-3-yl)-methanone] | 1390
25 | Cc1nc2cc(C(=O)N3CC[C@@]4(C)c5cccc(O)c5C[C@@H]3C4(C)C)ccc2c(=O)[nH]1 [Example 34, 7-[(2R,6S)-10-Hydroxy-6,11,11-trimethyl-1,2,5,6-tetrahydro-4H-2,6-methano-benzo[d]azocine-3-carbonyl]-2-methyl-3H-quinazolin-4-one] | 3880
26 | CC1(C)C2Cc3ccc(O)cc3C1(c1ccccc1)CCN2C(=O)c1ccc2nc[nH]c2c1 (stereo not drawn) [Example 150, (3H-Benzoimidazol-5-yl)-(8-hydroxy-11,11-dimethyl-6-phenyl-1,2,5,6-tetrahydro-4H-2,6-methano-benzo[d]azocin-3-yl)-methanone] | 438
27 | Cc1nc2cc3c(cc2o1)C[C@H]1N(C(=O)c2ccc4nc[nH]c4c2)CC[C@]3(C)C1(C)C [Example 301, (3H-Benzoimidazol-5-yl)-[(6R,10S)-5,6,7,8,9,10-hexahydro-2,10,12,12-tetramethyl-6,10-methano-oxazolo[4,5-i][3]benzazocin-7-yl]-methanone] | 32
28 | C[C@H]1[C@H]2Cc3ccccc3[C@]1(C)CCN2C(=O)c1ccc2nc[nH]c2c1 (racemic) [Example 77, (3H-Benzoimidazol-5-yl)-(6,11-dimethyl-1,2,5,6-tetrahydro-4H-2,6-methano-benzo[d]azocin-3-yl)-methanone] | 144
29 | CCCN(C)C(=O)c1ccc(C(=O)N2CC[C@@]3(C)c4cccc(O)c4C[C@@H]2C3(C)C)cc1 [Example 167, 4-[(2R,6S)-10-Hydroxy-6,11,11-trimethyl-1,2,5,6-tetrahydro-4H-2,6-methano-benzo[d]azocine-3-carbonyl]-N-methyl-N-propyl-benzamide] | 291

Same assay, conditions: 1 hour at 37° C., pH 6.0, NADPH 200 μM, cortisone 80 nM, inhibition relative to carbenoxolone signal, read-out: 11β-HSD IC50

Row | Compound | IC50 [nM]
30 | Cn1cc(C2=NC3=CC4=C(CC3=N2)C[C@H]2N(C(=O)c3ccc5nc[nH]c5c3)CC[C@]4(C)C2(C)C)ccc1=O [Example 272, (3H-Benzoimidazol-5-yl)-[(6R,10S)-5,6,7,8,9,10-hexahydro-10,12,12-trimethyl-2-(1-methyl-6-oxo-1,6-dihydro-pyridin-3-yl)-6,10-methano-imidazo[5,4-i][3]benzazocin-7-yl]-methanone] | 44
